Some test systems named below: Malme-3M; NCI-H460; UACC-62; SF-539; LOX IMVI; HCT-15; SK-OV-3; OVCAR-4; K562; MOLT-4; OVCAR-5; A498; U-251; SW-620; HT-29; RXF 393; M14; DU-145; HL-60; NCI-H226.
Holding throughout (experiment): NCI anticancer screen, dose series, 48 h

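Assay format: 96-well plates, 48-hour exposure. Abbreviation: GI50, concentration required for 50% inhibition of growth.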 The source made the active and inactive calls. Rule as the data show it: active = GI50 up to about 1.1 µM and inactive = higher.

As for `C=CCSc1nnc2cc(CN3CCCC3)c(-c3ccc(Cl)cc3)nn12`, the GI50 is 22.6 µM (inactive) with Malme-3M; 17.9 µM (inactive) with NCI-H460; 14.4 µM (inactive) with UACC-62; 18.6 µM (inactive) in the assay with SF-539; 20.4 µM (inactive) with LOX IMVI; 21.3 µM in the assay with HCT-15. Also, the GI50 in the assay on SK-OV-3 is 20.2 µM (inactive); in the assay on OVCAR-4, 20.3 µM (inactive); with K562, 34.7 µM (inactive); with MOLT-4, 26 µM (inactive); with OVCAR-5 it was 18.3 µM (inactive); with A498 it was 15.9 µM (inactive). Moreover, the GI50 in the assay on U-251 was 17.5 µM (inactive); in the assay on SW-620, 26.5 µM (inactive); in the assay on HT-29 it was 15 µM (inactive); in the assay with RXF 393 it was 15.1 µM (inactive); with M14, 18.1 µM (inactive); with DU-145, 20.3 µM (inactive). For the same compound, the GI50 with HL-60 is 17.9 µM (inactive); in the assay with NCI-H226, 11.2 µM (inactive).
Take `COC(=O)C1Cc2cc3c(cc2C1)CCC3`: the GI50 with Malme-3M is > 100 µM (inactive); in the assay with NCI-H460 it was > 100 µM (inactive); with UACC-62, > 100 µM (inactive); with SF-539, > 100 µM (inactive); in the assay with LOX IMVI, > 100 µM (inactive); in the assay on HCT-15 it was over 100 µM. Also, the GI50 in the assay with SK-OV-3, in the assay with OVCAR-4, in the assay on K562, with MOLT-4, in the assay on OVCAR-5 and with A498 was > 100 µM (inactive) in each case. For the same compound, the GI50 was > 100 µM (inactive) in the assay on U-251; > 100 µM (inactive) in the assay on SW-620; 68.9 µM (inactive) in the assay on HT-29; > 100 µM (inactive) in the assay on RXF 393; > 100 µM (inactive) in the assay on M14; > 100 µM (inactive) in the assay on DU-145. The GI50 in the assay on HL-60 and in the assay on NCI-H226 was > 100 µM (inactive) throughout.
In the case of `C/C(=N\NC(=O)c1ccncc1)c1ccc2ccccc2c1O`, the GI50 in the assay on Malme-3M is 1.19 µM (inactive); with NCI-H460 it was 0.356 µM (active); in the assay on UACC-62, 2.19 µM (inactive); with SF-539 it was 1.46 µM (inactive); in the assay on LOX IMVI, 1.04 µM (active); in the assay on HCT-15, 0.419 µM. Besides, the GI50 was 4.47 µM (inactive) in the assay on SK-OV-3; 0.966 µM (active) with OVCAR-4; 1.84 µM (inactive) with K562; 0.513 µM (active) in the assay with MOLT-4; 6.12 µM (inactive) in the assay with OVCAR-5; 11.2 µM (inactive) with A498. Moreover, the GI50 with U-251 is 2.69 µM (inactive); in the assay on SW-620, 3.12 µM (inactive); with HT-29 it was 0.498 µM (active); with RXF 393, 3.08 µM (inactive); in the assay on M14, 2.08 µM (inactive); in the assay on DU-145 it was 2.25 µM (inactive). Also, the values for the GI50 in the assay with HL-60 and in the assay with NCI-H226 were 0.638 µM (active) and 1.77 µM (inactive), respectively.
For `O=C1/C(=c2\c3ccccc3n3c(=O)c4ccccc4nc23)Nc2ccccc21` [CANDIDINE], the GI50 is 33 µM (inactive) in the assay with Malme-3M; 43.5 µM (inactive) in the assay with NCI-H460; 43.9 µM (inactive) in the assay on UACC-62; > 63 µM (inactive) with SF-539; > 72.8 µM (inactive) in the assay on LOX IMVI; over 100 µM with HCT-15. In addition, the GI50 in the assay with SK-OV-3 is > 100 µM (inactive); with OVCAR-4, > 100 µM (inactive); in the assay on K562, > 84.5 µM (inactive); in the assay with MOLT-4, > 31.6 µM (inactive); in the assay on OVCAR-5 it was > 100 µM (inactive); with A498 it was > 100 µM (inactive). The GI50 with U-251 is > 93.8 µM (inactive); with SW-620 it was > 100 µM (inactive); in the assay on HT-29, 26.6 µM (inactive); with RXF 393, > 100 µM (inactive); in the assay on M14, > 38.7 µM (inactive); with DU-145, > 100 µM (inactive). Besides, the GI50 in the assay with HL-60 was > 10 µM (inactive); in the assay with NCI-H226, > 100 µM (inactive).
As to `Cc1nc2ccc(S(=O)(=O)NS(=O)(=O)c3ccc(-c4ccccc4)cc3)cc2c(=O)n1NS(=O)(=O)c1ccc(-c2ccccc2)cc1`, the GI50 in the assay on Malme-3M was > 100 µM (inactive); in the assay with NCI-H460 it was > 100 µM (inactive); in the assay on UACC-62, > 100 µM (inactive); in the assay on SF-539, > 100 µM (inactive); with LOX IMVI, > 100 µM (inactive); in the assay with HCT-15, over 100 µM. In addition, the GI50 is > 100 µM (inactive) in the assay with SK-OV-3; 60 µM (inactive) in the assay on OVCAR-4; > 100 µM (inactive) in the assay with K562; > 100 µM (inactive) with MOLT-4; > 100 µM (inactive) with OVCAR-5; 0.753 µM (active) with A498. Moreover, the GI50 with U-251, in the assay with SW-620, in the assay on HT-29, in the assay on RXF 393, in the assay with M14 and with DU-145 was > 100 µM (inactive) each time. Also, the GI50 with HL-60 and with NCI-H226 was > 100 µM (inactive) each time.
Take `O=C(CCN1CCN2c3ccccc3CCC2C1)c1ccc(F)cc1` (stereo not given): the GI50 is 25.1 µM (inactive) in the assay on Malme-3M; 47.1 µM (inactive) in the assay on NCI-H460; 31 µM (inactive) in the assay on UACC-62; 20.8 µM (inactive) with SF-539; 30.1 µM (inactive) with LOX IMVI; 20.8 µM with HCT-15. For the same compound, the GI50 in the assay on SK-OV-3 is 68.2 µM (inactive); in the assay with OVCAR-4, 20 µM (inactive); in the assay on K562, 30.2 µM (inactive); with MOLT-4 it was 57.3 µM (inactive); in the assay with OVCAR-5, 23.1 µM (inactive); with A498, > 100 µM (inactive). The GI50 with U-251 was 27.8 µM (inactive); in the assay with SW-620, 10.3 µM (inactive); in the assay with HT-29, 18.8 µM (inactive); in the assay with RXF 393, 20.6 µM (inactive); with M14 it was 49.7 µM (inactive); with DU-145 it was 30.1 µM (inactive). Moreover, the GI50 in the assay with HL-60 is 28.5 µM (inactive); with NCI-H226, 34.8 µM (inactive).
In the case of `O=c1cc(-c2ccccc2)nc2[nH]ccn12`, the GI50 in the assay with Malme-3M was > 10 µM (inactive); in the assay on NCI-H460 it was > 10 µM (inactive); in the assay on UACC-62, > 10 µM (inactive); in the assay on SF-539, > 10 µM (inactive); with LOX IMVI it was > 10 µM (inactive); in the assay on HCT-15, over 10 µM. In addition, the GI50 in the assay with SK-OV-3, in the assay with OVCAR-4, in the assay with K562, with MOLT-4, in the assay with OVCAR-5 and with A498 was > 10 µM (inactive) throughout. The GI50 in the assay on U-251, in the assay on SW-620, in the assay with HT-29, in the assay on RXF 393, in the assay with M14 and with DU-145 was > 10 µM (inactive) throughout. The GI50 with HL-60 and in the assay with NCI-H226 was > 10 µM (inactive) each time.
For `COC(=O)NNc1c([N+](=O)[O-])cnn(-c2ccccc2)c1=O`, the GI50 in the assay with Malme-3M was 2.47 µM (inactive); in the assay with NCI-H460, 3.96 µM (inactive); in the assay on UACC-62, 2.11 µM (inactive); in the assay with SF-539, 3.29 µM (inactive); with LOX IMVI it was 1.66 µM (inactive); in the assay with HCT-15, 2.45 µM. Moreover, the GI50 in the assay on SK-OV-3 was 9.71 µM (inactive); with OVCAR-4 it was 2.07 µM (inactive); with K562 it was 1.04 µM (active); in the assay with MOLT-4, 0.815 µM (active); with OVCAR-5 it was 4.44 µM (inactive); in the assay with A498 it was 27.3 µM (inactive). The GI50 with U-251 was 2.62 µM (inactive); in the assay with SW-620, 1.07 µM (active); in the assay on HT-29, 2.04 µM (inactive); with RXF 393 it was 3.73 µM (inactive); in the assay on M14, 1.8 µM (inactive); in the assay with DU-145, 5.62 µM (inactive). The GI50 in the assay on HL-60 is 1.39 µM (inactive); with NCI-H226 it was 4.19 µM (inactive).
For the compound `COc1cc(C=O)cc(/C=N/c2ccc(Br)cc2)c1O`, the GI50 in the assay with Malme-3M is 4.04 µM (inactive); with NCI-H460, 2.71 µM (inactive); in the assay with UACC-62 it was 0.347 µM (active); with SF-539, 2.38 µM (inactive); with LOX IMVI, 0.16 µM (active); with HCT-15, 2.15 µM. Besides, the GI50 was 2.17 µM (inactive) in the assay on SK-OV-3; 22.5 µM (inactive) with OVCAR-4; 0.555 µM (active) in the assay with K562; 22 µM (inactive) in the assay on MOLT-4; 24.5 µM (inactive) in the assay with OVCAR-5; 16.4 µM (inactive) in the assay with A498. The GI50 in the assay with U-251 was 4.57 µM (inactive); with SW-620, 1.25 µM (inactive); in the assay on HT-29, 17.7 µM (inactive); with RXF 393, 4.43 µM (inactive); in the assay with M14 it was 1.66 µM (inactive); in the assay with DU-145, 11.3 µM (inactive). The GI50 in the assay with HL-60 is 2.11 µM (inactive); with NCI-H226, 2.59 µM (inactive).
For `COc1ccc(-c2c(-c3ccccc3)c(C)nc3[nH]c(=S)[nH]c(=S)c23)cc1OC`, the GI50 was 30.8 µM (inactive) in the assay with Malme-3M; 24.3 µM (inactive) in the assay on NCI-H460; 16.1 µM (inactive) in the assay with UACC-62; 19.8 µM (inactive) with SF-539; 28.2 µM (inactive) in the assay on LOX IMVI; 30.9 µM in the assay on HCT-15. Besides, the GI50 in the assay on SK-OV-3 was 37 µM (inactive); in the assay with OVCAR-4, > 100 µM (inactive); in the assay on K562 it was 31.2 µM (inactive); with MOLT-4 it was 12 µM (inactive); with OVCAR-5 it was 64.4 µM (inactive); in the assay on A498 it was 28.2 µM (inactive). Also, the GI50 with U-251 is 33.4 µM (inactive); with SW-620, 61.7 µM (inactive); with HT-29 it was 41 µM (inactive); in the assay with RXF 393 it was 35.8 µM (inactive); with M14 it was 36.1 µM (inactive); in the assay with DU-145, 44.4 µM (inactive). Moreover, the GI50 in the assay on HL-60 was 31.8 µM (inactive); in the assay on NCI-H226, 38 µM (inactive).
